Assay results reported in patent US11779573B2, “Crystalline forms of compounds for preventing or treating sensory hair cell death” (University of Washington, priority 2017, dated 2023).

What was measured:
Assay type in all cases: physicochemical
[1] = Solubility in water of scaled-up salts of Compound B (salt screen)
Procedure: These slurry experiments were also performed at gram scale with 25 mg/mL Compound B in 20 mL ethyl acetate with 1 equivalent acid.

[2] = Solubility of Compound 1 in water, shake-flask method; conditions: thermodynamic from solid, visually determined at 20° C., water added stepwise to 10 mg
Procedure: Water was added stepwise to 10 mg of Compound 1, with 15 minutes in between additions, until complete dissolution was obtained.

[3] = Dynamic vapor sorption (DVS), hygroscopicity and XRPD before/after; conditions: for hygroscopicity / crystallinity / polymorphic form (XRPD) after DVS: mesylate; for crystallinity / polymorphic form (XRPD) after DVS: XRPD before and after DVS cycles of relative humidity
Procedure: DVS studies were performed using a Surface Measurement Systems Ltd. DVS-1 No Video. The sample, typically 20-30 mg, was loaded into a balance pan and equilibrated at 0% relative humidity (RH). After the material was dried, the RH was increased at 10% per step for 1 hour per increment, ending at 95% RH. After completion of the sorption cycle, the sample was dried using the same method, and the cycle was repeated. The software used for data collection was DVSWin v3.01 No Video. Data analysis was performed using DVS Standard Analysis Suite v6.3.0 (Standard).

CN1[C@H]2CC[C@@H]1c1c(sc(NC(=O)Nc3ccc(Cl)cc3)c1C(N)=O)C2.CS(=O)(=O)O [Compound 1, (4R,7S)-2-(3-(4-chlorophenyl)ureido)-9-methyl-5,6,7,8-tetrahydro-4H-4,7-epiminocyclohepta[b]thiophene-3-carboxamide mesylate]
solubility [1]: 97 to 970 mg/mL
solubility at 15 min [2]: > 97 mg/mL
total mass uptake in the first sorption cycle ([3]; DVS, 0% to 95% RH, first sorption cycle): 1.8%
total mass uptake in the second cycle ([3]; DVS, 0% to 95% RH, second cycle): 1.6%
hygroscopicity ([3]; DVS, listed as mesylate salt): slightly hygroscopic at high humidity levels
hygroscopicity ([3]; DVS): slightly hygroscopic
crystallinity / polymorphic form (XRPD) after DVS ([3]; listed as mesylate salt): remained unchanged
crystallinity / polymorphic form (XRPD) after DVS [3]: unchanged
